Data on 23 compounds can be found in patent publication US11306101B2 (Celgene Corporation, priority 2019, dated 2022).

In this experiment the target is T1, CK1α (Homo sapiens, UniProt P48729+Q96SW2).
T1 construct: expressed in transfected cells
In words: CK1α ePL degradation assay in MDS-L cells. The format is cell-based. Conditions: MDS-L cells expressing ePL-tagged CK1α; for DC50: concentration giving 50% CK1α degradation vs DMSO control; for Y: lowest measured CK1α level normalized to DMSO control. As to the method: The following is an example of an assay that can be used to determine the CK1α degradation activity of Isoindolinone Carboxamide Compounds in a cell line, for example, the MDS-L cell line.
Compounds were dispensed by an acoustic dispenser (ATS acoustic transfer system from EDC Biosystems) into a 384-well in a 10 point dose-response curve using 3-fold dilutions starting at 10 μM and going down to 0.0005 μM in DMSO. […] Assay plates were incubated at 37° C. with 5% CO2 for the indicated times. At the different time points, 25 μL of the InCELL Hunter™ Detection Reagent Working Solution (catalog number 96-0002, DiscoverX, Fremont, Calif.) was added to each well and incubated at RT for 30 min protected from light. After 30 min, luminescence was read on a PHERAstar luminometer (BMG LABTECH, Cary, N.C.).
CK1α levels in compound-treated wells were normalized to that of DMSO control and expressed as percent of control (PoC) (y).
The lowest measured CK1α level normalized to DMSO control in response to compound treatment, termed Y value, was used to characterize the compound-mediated CK1α degradation efficiency.

T1 sequence (P48729 whole entry): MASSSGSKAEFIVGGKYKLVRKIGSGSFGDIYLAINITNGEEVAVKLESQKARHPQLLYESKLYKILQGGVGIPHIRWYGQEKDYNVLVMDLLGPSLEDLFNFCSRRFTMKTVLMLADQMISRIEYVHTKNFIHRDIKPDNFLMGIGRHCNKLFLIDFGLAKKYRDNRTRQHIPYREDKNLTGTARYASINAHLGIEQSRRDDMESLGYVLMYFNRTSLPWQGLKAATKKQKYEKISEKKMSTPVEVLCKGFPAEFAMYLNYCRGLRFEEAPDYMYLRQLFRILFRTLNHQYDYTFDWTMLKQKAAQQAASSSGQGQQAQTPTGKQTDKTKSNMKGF
T1 sequence (Q96SW2 whole entry): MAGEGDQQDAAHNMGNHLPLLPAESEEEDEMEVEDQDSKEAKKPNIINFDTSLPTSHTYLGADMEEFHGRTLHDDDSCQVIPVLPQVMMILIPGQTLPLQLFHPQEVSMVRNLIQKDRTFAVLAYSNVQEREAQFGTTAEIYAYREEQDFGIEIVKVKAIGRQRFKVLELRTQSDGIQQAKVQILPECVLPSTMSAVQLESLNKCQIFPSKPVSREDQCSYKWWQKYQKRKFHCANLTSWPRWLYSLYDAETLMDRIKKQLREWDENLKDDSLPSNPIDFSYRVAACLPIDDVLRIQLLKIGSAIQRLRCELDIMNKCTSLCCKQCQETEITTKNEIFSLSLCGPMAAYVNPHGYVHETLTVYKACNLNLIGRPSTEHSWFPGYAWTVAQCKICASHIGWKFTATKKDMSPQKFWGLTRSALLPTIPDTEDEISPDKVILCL
T1 sequence (Q16531 whole entry partner): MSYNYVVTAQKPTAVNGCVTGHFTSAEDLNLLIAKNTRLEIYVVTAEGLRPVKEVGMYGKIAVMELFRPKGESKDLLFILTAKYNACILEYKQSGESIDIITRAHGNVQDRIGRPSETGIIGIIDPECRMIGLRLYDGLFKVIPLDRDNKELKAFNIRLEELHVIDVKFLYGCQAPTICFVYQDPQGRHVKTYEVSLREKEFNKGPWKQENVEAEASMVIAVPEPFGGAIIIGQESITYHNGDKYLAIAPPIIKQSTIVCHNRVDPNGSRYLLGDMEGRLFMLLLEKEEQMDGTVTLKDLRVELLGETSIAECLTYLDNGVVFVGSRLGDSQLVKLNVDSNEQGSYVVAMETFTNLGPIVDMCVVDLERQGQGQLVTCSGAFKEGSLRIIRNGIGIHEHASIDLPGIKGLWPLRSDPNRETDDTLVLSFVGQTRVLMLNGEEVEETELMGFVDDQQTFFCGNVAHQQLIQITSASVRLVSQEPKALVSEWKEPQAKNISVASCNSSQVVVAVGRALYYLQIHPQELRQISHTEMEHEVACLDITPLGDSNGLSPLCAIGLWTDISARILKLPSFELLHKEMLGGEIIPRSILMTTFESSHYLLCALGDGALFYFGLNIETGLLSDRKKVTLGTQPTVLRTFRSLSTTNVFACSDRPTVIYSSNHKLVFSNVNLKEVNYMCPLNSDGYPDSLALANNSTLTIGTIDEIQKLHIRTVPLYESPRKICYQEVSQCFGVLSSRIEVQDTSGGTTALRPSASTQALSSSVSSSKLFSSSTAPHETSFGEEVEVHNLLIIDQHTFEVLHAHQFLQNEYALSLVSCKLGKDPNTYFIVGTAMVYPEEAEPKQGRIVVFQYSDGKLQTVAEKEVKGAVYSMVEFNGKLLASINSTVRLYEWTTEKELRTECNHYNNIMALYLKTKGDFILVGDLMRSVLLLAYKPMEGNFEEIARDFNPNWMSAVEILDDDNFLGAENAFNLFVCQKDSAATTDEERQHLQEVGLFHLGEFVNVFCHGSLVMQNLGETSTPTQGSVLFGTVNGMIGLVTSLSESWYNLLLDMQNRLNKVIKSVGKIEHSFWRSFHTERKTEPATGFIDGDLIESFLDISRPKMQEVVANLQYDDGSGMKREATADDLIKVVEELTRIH

Take `O=C1CCC(N2Cc3cc(C(=O)N[C@H](c4ccccc4C(F)(F)F)C(F)(F)F)ccc3C2=O)C(=O)N1` (stereo partly drawn) [Example 47, 2-(2,6-dioxopiperidin-3-yl)-1-oxo-N-((R)-2,2,2-trifluoro-1-(2-(trifluoromethyl)phenyl)ethyl)isoindoline-5-carboxamide]: the DC50 is below 100 nM and the Y entry is reported as “* (a Y value (shown as *) of 0<Y≤20%)”.

Turning to `O=C1CCC(N2Cc3cc(C(=O)N[C@H](c4ccccn4)C(F)(F)F)ccc3C2=O)C(=O)N1` (stereo partly drawn) [Example 48, 2-(2,6-dioxopiperidin-3-yl)-1-oxo-N-((R)-2,2,2-trifluoro-1-(pyridin-2-yl)ethyl)isoindoline-5-carboxamide], the half-maximal degradation concentration (DC50) was 100 to 500 nM and the Y entry is on record as “** (a Y value (shown as**) of 20%<Y≤35%)”.

With `O=C1CCC(N2Cc3cc(C(=O)N[C@H](c4ccccc4F)C(F)(F)F)ccc3C2=O)C(=O)N1` (stereo partly drawn) [Example 49, 2-(2,6-dioxopiperidin-3-yl)-1-oxo-N-((R)-2,2,2-trifluoro-1-(2-fluorophenyl)ethyl)isoindoline-5-carboxamide], the half-maximal degradation concentration (DC50) was below 100 nM and the Y entry is “* (a Y value (shown as *) of 0<Y≤20%)”.

As for `O=C1CCC(N2Cc3cc(C(=O)N[C@H](c4ccccc4Cl)C(F)(F)F)ccc3C2=O)C(=O)N1` (stereo partly drawn) [Example 50, N-((R)-1-(2-chlorophenyl)-2,2,2-trifluoroethyl)-2-(2,6-dioxopiperidin-3-yl)-1-oxoisoindoline-5-carboxamide], the DC50 was below 100 nM and the Y result is “* (a Y value (shown as *) of 0<Y≤20%)”.

For the compound `C[C@H](NC(=O)c1ccc2c(c1)CN(C1CCC(=O)NC1=O)C2=O)c1ccc(F)cc1F` (stereo partly drawn) [Example 51, N-((S)-1-(2,4-difluorophenyl)ethyl)-2-(2,6-dioxopiperidin-3-yl)-1-oxoisoindoline-5-carboxamide], the DC50 was below 100 nM and the Y entry is recorded as “* (a Y value (shown as *) of 0<Y≤20%)”.

`O=C1CCC(N2Cc3cc(C(=O)N[C@H](c4cccc(C(F)(F)F)c4)C(F)(F)F)ccc3C2=O)C(=O)N1` (stereo partly drawn) [Example 52, 2-(2,6-dioxopiperidin-3-yl)-1-oxo-N-((R)-2,2,2-trifluoro-1-(3-(trifluoromethyl)phenyl)ethyl)isoindoline-5-carboxamide]: the DC50 was below 100 nM and the Y entry is reported as “* (a Y value (shown as *) of 0<Y≤20%)”.

As to `O=C1CCC(N2Cc3cc(C(=O)N[C@H](C4CCC5(CCC5)CC4)C(F)(F)F)ccc3C2=O)C(=O)N1` (stereo partly drawn) [Example 53, 2-(2,6-dioxopiperidin-3-yl)-1-oxo-N-((1R)-2,2,2-trifluoro-1-(spiro[3.5]nonan-7-yl)ethyl)isoindoline-5-carboxamide], the DC50 was below 100 nM and the Y result is on record as “* (a Y value (shown as *) of 0<Y≤20%)”.

For `O=C1CCC(N2Cc3cc(C(=O)N[C@H](c4cccnc4)C(F)(F)F)ccc3C2=O)C(=O)N1` (stereo partly drawn) [Example 54, 2-(2,6-dioxopiperidin-3-yl)-1-oxo-N-((R)-2,2,2-trifluoro-1-(pyridin-3-yl)ethyl)isoindoline-5-carboxamide], the DC50 lay within 100 to 500 nM and the Y entry is listed as “** (a Y value (shown as**) of 20%<Y≤35%)”.

As for `C[C@H](NC(=O)c1ccc2c(c1)CN(C1CCC(=O)NC1=O)C2=O)c1ccc(Cl)cc1F` (stereo partly drawn) [Example 55, N-((S)-1-(4-chloro-2-fluorophenyl)ethyl)-2-(2,6-dioxopiperidin-3-yl)-1-oxoisoindoline-5-carboxamide], the DC50 is below 100 nM and the Y result is on record as “* (a Y value (shown as *) of 0<Y≤20%)”.

For `O=C1CCC(N2Cc3cc(C(=O)N[C@H]([C@H]4CC[C@H](O)CC4)C(F)(F)F)ccc3C2=O)C(=O)N1` (stereo partly drawn) [Example 56, 2-(2,6-dioxopiperidin-3-yl)-1-oxo-N-((R)-2,2,2-trifluoro-1-((1r,4R)-4-hydroxycyclohexyl)ethyl)isoindoline-5-carboxamide], the half-maximal degradation concentration (DC50) lay within 100 to 500 nM and the Y result is recorded as “* (a Y value (shown as *) of 0<Y≤20%)”.

Regarding `O=C1CCC(N2Cc3cc(C(=O)N[C@@H](C(F)(F)F)C45CC(C4)C5)ccc3C2=O)C(=O)N1` (stereo partly drawn) [Example 57, N-((R)-1-(bicyclo[1.1.1]pentan-1-yl)-2,2,2-trifluoroethyl)-2-(2,6-dioxopiperidin-3-yl)-1-oxoisoindoline-5-carboxamide], the DC50 was below 100 nM and the Y result is recorded as “* (a Y value (shown as *) of 0<Y≤20%)”.

As for `O=C1CCC(N2Cc3cc(C(=O)N[C@H](c4cccc(OC(F)(F)F)c4)C(F)(F)F)ccc3C2=O)C(=O)N1` (stereo partly drawn) [Example 58, 2-(2,6-dioxopiperidin-3-yl)-1-oxo-N-((R)-2,2,2-trifluoro-1-(3-(trifluoromethoxy)phenyl)ethyl)isoindoline-5-carboxamide], the 50% degradation concentration (DC50) was below 100 nM and the Y result is listed as “* (a Y value (shown as *) of 0<Y≤20%)”.

Turning to `C[C@H](NC(=O)c1ccc2c(c1)CN(C1CCC(=O)NC1=O)C2=O)c1ccc(F)cc1Cl` (stereo partly drawn) [Example 59, N-((S)-1-(2-chloro-4-fluorophenyl)ethyl)-2-(2,6-dioxopiperidin-3-yl)-1-oxoisoindoline-5-carboxamide], the half-maximal degradation concentration (DC50) was below 100 nM and the Y result is listed as “* (a Y value (shown as *) of 0<Y≤20%)”.

Regarding `O=C1CC[C@@H](N2Cc3cc(C(=O)N[C@H](c4ccccc4)C(F)(F)F)ccc3C2=O)C(=O)N1` [Example 60, 2-((R)-2,6-dioxopiperidin-3-yl)-1-oxo-N-((R)-2,2,2-trifluoro-1-phenylethyl)isoindoline-5-carboxamide], the DC50 was below 100 nM and the Y entry is on record as “* (a Y value (shown as *) of 0<Y≤20%)”.

As to `O=C1CC[C@H](N2Cc3cc(C(=O)N[C@H](c4ccccc4)C(F)(F)F)ccc3C2=O)C(=O)N1` [Example 61, 2-((S)-2,6-dioxopiperidin-3-yl)-1-oxo-N-((R)-2,2,2-trifluoro-1-phenylethyl)isoindoline-5-carboxamide], the half-maximal degradation concentration (DC50) is below 100 nM and the Y result is on record as “* (a Y value (shown as *) of 0<Y≤20%)”.

As to `O=C1CCC(N2Cc3cc(C(=O)N[C@H]([C@H]4CC[C@@H](O)CC4)C(F)(F)F)ccc3C2=O)C(=O)N1` (stereo partly drawn) [Example 62, 2-(2,6-dioxopiperidin-3-yl)-1-oxo-N-((R)-2,2,2-trifluoro-1-((1s,4S)-4-hydroxycyclohexyl)ethyl)isoindoline-5-carboxamide], the DC50 lay within 100 to 500 nM and the Y entry was “* (a Y value (shown as *) of 0<Y≤20%)”.

Take `N#Cc1ccc([C@@H](NC(=O)c2ccc3c(c2)CN(C2CCC(=O)NC2=O)C3=O)C(F)(F)F)cc1` (stereo partly drawn) [Example 63, N-((R)-1-(4-cyanophenyl)-2,2,2-trifluoroethyl)-2-(2,6-dioxopiperidin-3-yl)-1-oxoisoindoline-5-carboxamide]: the DC50 was below 100 nM and the Y entry is “* (a Y value (shown as *) of 0<Y≤20%)”.

In the case of `N#Cc1cccc([C@@H](NC(=O)c2ccc3c(c2)CN(C2CCC(=O)NC2=O)C3=O)C(F)(F)F)c1` (stereo partly drawn) [Example 64, N-((R)-1-(3-cyanophenyl)-2,2,2-trifluoroethyl)-2-(2,6-dioxopiperidin-3-yl)-1-oxoisoindoline-5-carboxamide], the DC50 is below 100 nM and the Y entry is reported as “* (a Y value (shown as *) of 0<Y≤20%)”.

In the case of `Cn1ccc([C@@H](NC(=O)c2ccc3c(c2)CN(C2CCC(=O)NC2=O)C3=O)C(F)(F)F)n1` (stereo partly drawn) [Example 65, 2-(2,6-dioxopiperidin-3-yl)-1-oxo-N-((R)-2,2,2-trifluoro-1-(1-methyl-1H-pyrazol-3-yl)ethyl)isoindoline-5-carboxamide], the DC50 fell in the range of 500 to 1000 nM and the Y result is given as “** (a Y value (shown as**) of 20%<Y≤35%)”.

Consider `O=C1CCC(N2Cc3cc(C(=O)N[C@H](c4cncnc4)C(F)(F)F)ccc3C2=O)C(=O)N1` (stereo partly drawn) [Example 66, 2-(2,6-dioxopiperidin-3-yl)-1-oxo-N-((R)-2,2,2-trifluoro-1-(pyrimidin-5-yl)ethyl)isoindoline-5-carboxamide], for which the DC50 was in the range of 500 to 1000 nM and the Y result is “** (a Y value (shown as**) of 20%<Y≤35%)”.

As for `COc1cc(F)ccc1[C@@H](NC(=O)c1ccc2c(c1)CN(C1CCC(=O)NC1=O)C2=O)C(F)(F)F` (stereo partly drawn) [Example 67, 2-(2,6-dioxopiperidin-3-yl)-1-oxo-N-((R)-2,2,2-trifluoro-1-(4-fluoro-2-methoxyphenyl)ethyl)isoindoline-5-carboxamide], the 50% degradation concentration (DC50) was below 100 nM and the Y result is on record as “* (a Y value (shown as *) of 0<Y≤20%)”.

For `CC(C)([C@@H](NC(=O)c1ccc2c(c1)CN(C1CCC(=O)NC1=O)C2=O)C(F)(F)F)C(F)(F)F` (stereo partly drawn) [Example 68, 2-(2,6-dioxopiperidin-3-yl)-N-((R)-1,1,1,4,4,4-hexafluoro-3,3-dimethylbutan-2-yl)-1-oxoisoindoline-5-carboxamide], the DC50 fell in the range of 100 to 500 nM and the Y result is reported as “** (a Y value (shown as**) of 20%<Y≤35%)”.

As to `Cn1nccc1[C@@H](NC(=O)c1ccc2c(c1)CN(C1CCC(=O)NC1=O)C2=O)C(F)(F)F` (stereo partly drawn) [Example 69, 2-(2,6-dioxopiperidin-3-yl)-1-oxo-N-((R)-2,2,2-trifluoro-1-(1-methyl-1H-pyrazol-5-yl)ethyl)isoindoline-5-carboxamide], the DC50 lay within 500 to 1000 nM and the Y result is “** (a Y value (shown as**) of 20%<Y≤35%)”.

In general, DC50 refers to the midpoint of the concentration-degradation curve.
